Assay results: article PMC10447463, “Data-mining unveils structure–property–activity correlation of viral infectivity enhancing self-assembling peptides” (Nature Communications, 2023)
Read-outs that look alike come from different tables or passages of the source.

What was measured:
[1] = Conversion rate (CR) assay with fluorescamine; type: physicochemical; set-up: key to CR: % = 100−100×filtrate/original fluorescence intensity
Outline: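 Measurements on freeze-dried PNF powders used a diamond ATR element, 64 scans each, with β-sheet fraction derived as previously reported. CR reflects loss of fluorescamine-reactive monomer after 3 kDa ultrafiltration, averaged over triplicates.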

TZM-bl cells = type: cell-based; conditions: CellTiter-Glo, mean of n = 3 replicates; for viability 0.26 µM: peptide 0.26 µM; for viability 1.3 µM: peptide 1.3 µM; for viability 6.5 µM: peptide 6.5 µM
Experimental: The cell viability after addition of peptides to TZM–bl cells was studied via the CellTiter–Glo assay. To this end, 10,000 cells were seeded and on the next day serial diluted peptides were added. After 3 days the supernatant was removed and 100 µL CellTiter–Glo Reagent 1:1 diluted in PBS was added. After 10 min 50 µL was transferred to white microplate and luminescence was recorded by Orion microplate luminometer.
2. Cell Viability of Representatively Selected Peptides
Figure S 2 Cell Viability normalized to 100% metabolic activity as determined by CellTiterGlo Assay of 57 representatively selected peptides from the library. The selection represents infectivity enhancing and not […]
concentration. Error bars indicate standard deviation from triplicate measurements. Source data for Figure S2 […]
Figure S3 Cell Viability normalized to 100% metabolic activity determined by CellTiterGlo Assay of 20 peptides reported in literature. 33,34,43–48,35–42 Cell viability (> 80%) is maintained for all peptides at 1.3 µM concentration regardless of the preparation method, which is A PNF formation method by dilution of 10 mg/mL peptide stock in DMSO in PBS to 1 mg/mL or B preparation according to literature reported protocol (SI Section 8). Error bars indicate standard deviation from triplicate measurements. Source data for Figure S3 is provided.

[2] = ref sieste 2021 or Schilling2019, cited from earlier work
Excerpt: Supplement 41467_2023_40663_MOESM7_ESM.zip/FigS17.csv, table | column: Conversion Rate / % ( from sieste 2021 or Schilling2019)

[3] = previously reported peptides only

Substance | Conversion Rate / % ([1]; fluorescamine assay) [%] | viability 0.26 µM (TZM-bl cells) | viability 1.3 µM (TZM-bl cells) | viability 6.5 µM (TZM-bl cells) | Conversion Rate / % ( from sieste 2021 or Schilling2019) [2] [%] | Conversion Rate / % [1] [%] | further results
CEFEFQFNMWQ [TM140] | 98.63 | 125.8 | 116.7 | 98.23 | – | – | –
CEIEIQI [AR2/ TM142] | – | – | – | – | 59 | – | –
CEIEIQINM [TM144] | – | – | – | – | 43 | – | –
CEIEIQINMWQ [TM143] | 59.9 | 119.4 | 116.4 | 95.82 | 74 | 59.9 | –
CHLHLQL [CN9] | 96.58 | 107.2 | 104.6 | 96.74 | – | – | –
CKAKAQA [TM155] | – | – | – | – | 44 | – | –
CKAKAQANM [BL9] | 57.73 | – | – | – | 38 | 57.73 | –
CKAKAQANMWQ [BL8] | 92.9 | – | – | – | 92 | 92.9 | –
CKFKFQF [BL4] | 96.11 | 97.07 | 99.36 | 84.09 | 95 | 96.11 | –
CKFKFQFNM [BL3] | 99.03 | – | – | – | 88 | 99.03 | –
CKFKFQFNMWQ [BL2] | 99.03 | 106 | 95.99 | 75.41 | 96 | 99.03 | –
CKFKFQFW [TM72] | – | 91.88 | 85.39 | 82.4 | – | – | –
CKFKQFF [CK15] | 90.05 | – | – | – | – | 90.05 | –
CKFKQFFNM [CK14] | – | 126.1 | 113.2 | 106.7 | – | – | –
CKFKQFFNMWQ [CK13] | 98.72 | 122.3 | 108 | 88.49 | – | 98.72 | –
CKIKIQI [MG3b] | – | 107.8 | 105.2 | 91.32 | 54 | – | –
CKIKIQINM [MG2] | 79 | – | – | – | 72 | 79 | –
CKIKIQINMWQ | – | – | – | – | – | – | CR / % ([1]; Fig. S7 panel B, conversion rate, fluorescamine assay): 89.1%; CR ([1]; conversion rate, fluorescamine assay): 89.15
CKIKIQINMWQ [MG1] | 91.29 | – | – | – | 87 | 91.29 | –
CKIKQII [MG4a] | – | – | – | – | – | – | Conversion Rate / % ( from sieste 2021 or Schilling2019) [2, 3]: 55%

Substance | Conversion Rate / % ([1]; fluorescamine assay) [%] | viability 0.26 µM (TZM-bl cells) | viability 1.3 µM (TZM-bl cells) | viability 6.5 µM (TZM-bl cells) | Conversion Rate / % ( from sieste 2021 or Schilling2019) [2] [%] | Conversion Rate / % [1] [%] | further results
CKIKQIINM [BL1] | – | 107.4 | 104.1 | 87.1 | – | – | Conversion Rate / % ( from sieste 2021 or Schilling2019) [2, 3]: 45%
CKIKQIINMWQ [MG5a / CK17] | – | 108.4 | 105.1 | 87.21 | – | – | Conversion Rate / % ( from sieste 2021 or Schilling2019) [2, 3]: 50%
CKWKWQW [KB4] | – | 110.3 | 107 | 96.91 | – | – | –
CQFQFQF [QBL4] | – | 110.4 | 111.2 | 99.59 | – | – | –
CRFRFQF [CN10] | 98.13 | 93.96 | 90.72 | 89.78 | – | – | –
CRFRVPF [CN8] | 97.05 | – | – | – | – | – | –
CSISIQI [TM141] | 76.63 | 98.15 | 96.88 | 81.12 | 82 | – | –
CSISIQINM [TM145] | – | – | – | – | 86 | – | –
HHHHKIKIKIKIYYYY [TM6] | – | 112.4 | 103.8 | 86.78 | – | – | –
KAKAQA [JJA2 / TM153] | 0.3138 | 119.1 | 118.6 | 109.1 | – | 0.3138 | –
KAKAQANMWQ [JG3] | 47.47 | 106.8 | 106.3 | 103.1 | 65 | 47.47 | –
KFKFKFQF [TG18] | – | – | – | – | – | – | Conversion Rate / % ( from sieste 2021 or Schilling2019) [2, 3]: 94%
KFKFQF [JJA6] | 51.79 | 101.2 | 100.3 | 102.1 | 83 | 51.79 | –
KFKFQFNM [BL6a] | 98.53 | – | – | – | 91 | 98.53 | –
KFKFQFNMWQ [JG4] | 98.32 | 119.1 | 111.9 | 101.1 | 94 | 98.32 | Conversion Rate / % ( from sieste 2021 or Schilling2019) ([2]; literature value): 94%
KFKFQFW [TM71] | – | 107.5 | 104.2 | 102.2 | – | – | –
KIKIKIKIYYYY [JR7] | – | 98.76 | 92.93 | 78.89 | – | – | –
KIKIKIQI [TG13] | – | – | – | – | – | – | Conversion Rate / % ( from sieste 2021 or Schilling2019) [2, 3]: 80%
KIKIKIQINMWQ [VH9] | – | 103.6 | 97.29 | 82.19 | – | – | –
KIKIQI [JJA4] | 32.82 | – | – | – | 5 | 32.82 | –

Substance | Conversion Rate / % ([1]; fluorescamine assay) [%] | viability 0.26 µM (TZM-bl cells) | viability 1.3 µM (TZM-bl cells) | viability 6.5 µM (TZM-bl cells) | Conversion Rate / % ( from sieste 2021 or Schilling2019) [2] [%] | Conversion Rate / % [1] [%] | further results
KIKIQIC [TM112 / CN11] | 51.55 | 99.13 | 101.3 | 97.07 | – | – | –
KIKIQINM [JGB2] | – | 119.1 | 112 | 103.3 | 64 | – | –
KIKIQINMWQ [JG1] | 95.68 | – | – | – | 93 | 95.68 | –
KIKQII [msis21] | 19.94 | – | – | – | – | 19.94 | Conversion Rate / % ( from sieste 2021 or Schilling2019) [2, 3]: 6%
KIKQIINM [JGA2] | – | 123.3 | 117.7 | 101.1 | – | – | –
QCKAKAQANMWQ [CK22] | 89.28 | 96.23 | 96.71 | 85.72 | – | 89.28 | –
QCKFKFQF [CK9] | – | 104.7 | 139.5 | 96.02 | – | – | –
QCKFKFQFNM [CK8] | 98.94 | – | – | – | – | 98.94 | –
QCKFKFQFNMWQ [CK7] | 98.91 | 107 | 97.9 | 88.11 | – | 98.91 | –
QCKFKQFFNM [CK11] | 98.67 | – | – | – | – | 98.67 | –
QCKFKQFFNMWQ [CK10] | 98.72 | 119.6 | 108.9 | 99.32 | – | 98.72 | –
QCKIKIQI [CK3] | – | 95.48 | 97.81 | 91.95 | – | – | –
QCKIKIQINM [CK2] | 89.7 | 114.5 | 100.8 | 83.71 | – | 89.7 | –
QCKIKIQINMWQ [EF-C opt] | 93.68 | 100.5 | 106.5 | 85.71 | – | 93.68 | –
RGDCKFKFQF [TM64/ CN15] | 85.47 | 108.7 | 107.1 | 101 | – | – | –
RGDCKIKIQINM [TM45] | – | 111.8 | 107.9 | 102.5 | – | – | –
RGDKIKIQIC [MG7/CN1] | – | 116.2 | 110.7 | 92.54 | – | – | –
RGDSKIKIQIC [TM113 / RC11] | – | 92.36 | 89.65 | 83.18 | – | – | –
